Consider 15 compounds from paper PMC8815882, “Screening the pandemic response box identified benzimidazole carbamates, Olorofim and ravuconazole as promising drug candidates for the treatment of eumycetoma” (PLoS Neglected Tropical Diseases, 2022).

Read-outs that look alike come from different tables or passages of the source.

The subject of the test is M. mycetomatis genome strain MM55. Description: CLSI M38-A2 based in vitro susceptibility screening (XTT or resazurin), growth at fixed concentration. The format is cell-based, Madurella mycetomatis. The settings on record: Madurella mycetomatis.
Setting [1] is: 25 uM, mean, read-out: Percentage survival at 25um, 25 uM mean.
Where [2] appears, read: 25 uM, replicate A, read-out: Percentage survival at 25um, 25 um A.
The mark [3] stands for this setting: 25 uM, replicate B, read-out: Percentage survival at 25um, 25 uM B.
Setting [4] is: 25 uM, replicate C, read-out: Percentage survival at 25um, 25 uM C.
Where [5] appears, read: mean, read-out: Percentage survival at 100um, 100 uM mean.
Setting [6] is: replicate (first column), read-out: Percentage survival at 100um, 100 uM A.
Where [7] appears, read: replicate (second column), read-out: Percentage survival at 100um, 100 uM A.
Setting [8] is: replicate (third column), read-out: Percentage survival at 100um, 100 uM A.
Setting [9] is: 25 uM, mean of three, M. mycetomatis MM55, read-out: Percentage survival at 25um, 25 uM mean.
The mark [10] stands for this setting: 25 uM, replicate A, M. mycetomatis MM55, read-out: Percentage survival at 25um, 25 um A.
Where [11] appears, read: 25 uM, replicate B, M. mycetomatis MM55, read-out: Percentage survival at 25um, 25 uM B.
The mark [12] stands for this setting: 25 uM, replicate C, M. mycetomatis MM55, read-out: Percentage survival at 25um, 25 uM C.
Where [13] appears, read: mean of three, M. mycetomatis MM55, read-out: Percentage survival at 100um, 100 uM mean.
The mark [14] stands for this setting: replicate 1, M. mycetomatis MM55, read-out: Percentage survival at 100um, 100 uM A (first replicate column).
Where [15] appears, read: replicate 2, M. mycetomatis MM55, read-out: Percentage survival at 100um, 100 uM A (second replicate column).
Where [16] appears, read: replicate 3, M. mycetomatis MM55, read-out: Percentage survival at 100um, 100 uM A (third replicate column).
[17] abbreviates: 25 uM, mean of three replicates, read-out: Percentage survival at 25um, 25 uM mean.
Setting [18] is: mean of three replicates, read-out: Percentage survival at 100um, 100 uM mean.
The mark [19] stands for this setting: replicate 1, read-out: Percentage survival at 100um, 100 uM A (first replicate column).
Setting [20] is: replicate 2, read-out: Percentage survival at 100um, 100 uM A (second replicate column).
Setting [21] is: replicate 3, read-out: Percentage survival at 100um, 100 uM A (third replicate column).
[22] abbreviates: 25 uM, mean of replicates, read-out: Percentage survival at 25um, 25 uM mean.
Setting [23] is: mean of replicates, read-out: Percentage survival at 100um, 100 uM mean.
Setting [24] is: replicate 1, read-out: Percentage survival at 100um, 100 uM A.
[25] abbreviates: replicate 2, read-out: Percentage survival at 100um, 100 uM A.
Where [26] appears, read: replicate 3, read-out: Percentage survival at 100um, 100 uM A.
[27] abbreviates: 25 uM, mean of replicates, MM55, read-out: Percentage survival at 25um, 25 uM mean.
Setting [28] is: 25 uM, replicate A, MM55, read-out: Percentage survival at 25um, 25 um A.
The mark [29] stands for this setting: 25 uM, replicate B, MM55, read-out: Percentage survival at 25um, 25 uM B.
[30] abbreviates: 25 uM, replicate C, MM55, read-out: Percentage survival at 25um, 25 uM C.
The mark [31] stands for this setting: mean of replicates, MM55, read-out: Percentage survival at 100um, 100 uM mean.
The mark [32] stands for this setting: replicate 1, MM55, read-out: Percentage survival at 100um, 100 uM A.
[33] abbreviates: replicate 2, MM55, read-out: Percentage survival at 100um, 100 uM A.
[34] abbreviates: replicate 3, MM55, read-out: Percentage survival at 100um, 100 uM A.

On to `C[C@H]1[C@@H](c2cccc(C(F)(F)F)c2)OC(=O)N1C(=O)NCc1cncc2ccccc12` [MMV1593533], for which the activity at 25 µM is, setting by setting: under setting [1], 50%; under setting [2], 54.1%; under setting [3], 42.5%; under setting [4], 53.3%. In addition, the activity at 100 µM is, setting by setting: under setting [5], 36.1%; under setting [6], 6.17%; under setting [7], 44.6%; under setting [8], 57.6%.

Take `CC[C@H]1OC(=O)[C@H](C)[C@@H](O[C@H]2C[C@@](C)(OC)[C@@H](O)[C@H](C)O2)[C@H](C)[C@@H](O[C@@H]2O[C@H](C)C[C@H](N(C)C)[C@H]2O)[C@](C)(O)C[C@@H](C)C(=O)[C@H](C)[C@@H](O)[C@]1(C)O` [MMV003137]: the activity at 25 µM under setting [9] was determined as 82.5%, the activity at 25 µM under setting [10] was found to be 94.8%, the activity at 25 µM under setting [11] was determined as 79.1% and the activity at 25 µM under setting [12] was 73.6%. Besides, the activity at 100 µM under setting [13] was 79.9%, the activity at 100 µM under setting [14] was 78.2% and the activity at 100 µM under setting [16] came out at 87.7%. Moreover, the Percent fungal survival at 100 µM under setting [15] came out at 73.7%.

Turning to `Cc1c(OCC(F)(F)F)ccnc1C[S+]([O-])c1nc2ccccc2[nH]1` (stereo not drawn) [MMV001438], the activity at 25 µM reads like this: under setting [17], 95.7%; under setting [2], 79.3%; under setting [3], 123%; under setting [4], 84.8%. Further, the activity at 100 µM is, setting by setting: under setting [18], 55.3%; under setting [19], 41.9%; under setting [21], 71.8%. Moreover, the Percent fungal survival at 100 µM under setting [20] was found to be 52.1%.

Consider `Cc1cccc(C)c1C(=O)Nc1nc(-c2ccccn2)cc2ccccc12` [MMV1581558], for which the activity at 25 µM under setting [17] amounted to 77.1%, the activity at 25 µM under setting [2] amounted to 65%, the activity at 25 µM under setting [3] worked out at 114% and the activity at 25 µM under setting [4] was found to be 52.4%. Further, the activity at 100 µM runs as follows: under setting [18], 86%; under setting [19], 76.1%; under setting [21], 118%. Besides, the Percent fungal survival at 100 µM under setting [20] was 64.3%.

Consider `c1ccc(Cn2c(-c3ccccn3)nc3ccccc32)cc1` [MMV1578886], for which the activity at 25 µM was determined as 60.6% under setting [22], 64.1% under setting [2], 69.2% under setting [3] and 48.7% under setting [4]. The activity at 100 µM under setting [23] was determined as 7.34%, the activity at 100 µM under setting [24] is 12%, the activity at 100 µM under setting [25] is 5.19% and the activity at 100 µM under setting [26] amounted to 4.84%.

Take `Cc1onc(-c2ccccc2)c1-c1ccc(S(N)(=O)=O)cc1` [MMV002260]: the activity at 25 µM by setting is: under setting [17], 81.4%; under setting [2], 85.1%; under setting [3], 77.3%; under setting [4], 81.8%. In addition, the activity at 100 µM turned out to be 99.5% under setting [18], 101% under setting [19] and 76.9% under setting [21]. For the same compound, the Percent fungal survival at 100 µM under setting [20] stood at 120%.

Consider `COc1ccc(NC(=O)c2cc3ccccn3n2)cc1` [MMV374187], for which the activity at 25 µM reads like this: under setting [17], 100%; under setting [2], 94.6%; under setting [3], 115%; under setting [4], 90.7%. Further, the activity at 100 µM was 65.8% under setting [18], 52% under setting [19] and 84.9% under setting [21]. Further, the Percent fungal survival at 100 µM under setting [20] was determined as 60.6%.

On to `O=C1NC(=S)N/C1=C\c1cc(Br)cc(Br)c1O` [MMV1578569], for which the activity at 25 µM is, setting by setting: under setting [22], 85.5%; under setting [2], 79.8%; under setting [3], 98.7%; under setting [4], 77.8%. In addition, the activity at 100 µM under setting [23] is 102%, the activity at 100 µM under setting [24] is 103%, the activity at 100 µM under setting [25] was 104% and the activity at 100 µM under setting [26] came to 97.5%.

Take `CC(C)CCN1C(=O)C(C2=NS(=O)(=O)c3cc(NS(C)(=O)=O)ccc3N2)=C(O)[C@@H]2[C@H]3CC[C@H](C3)[C@@H]21` [MMV1782220]: the activity at 25 µM under setting [27] was 83.6%, the activity at 25 µM under setting [28] was 78.4%, the activity at 25 µM under setting [29] was determined as 83.3% and the activity at 25 µM under setting [30] was found to be 89.2%. Moreover, the activity at 100 µM under setting [31] came out at 113%, the activity at 100 µM under setting [32] came out at 140%, the activity at 100 µM under setting [33] is 71% and the activity at 100 µM under setting [34] is 127%.

Turning to `CC(C)Cn1c(=O)n(C)c(=O)c2c(-c3cncn3C)n(Cc3cccc4ccccc34)nc21` [MMV1581559], the activity at 25 µM under setting [17] worked out at 58.5%, the activity at 25 µM under setting [2] turned out to be 82.8%, the activity at 25 µM under setting [3] was 69.9% and the activity at 25 µM under setting [4] was 22.7%. The activity at 100 µM under setting [18] came out at 3.57%, the activity at 100 µM under setting [19] turned out to be 1.05% and the activity at 100 µM under setting [21] is 3.94%. Besides, under setting [20], the Percent fungal survival at 100 µM came to 5.73%.

With `NS(=O)(=O)c1ccc(NC(=O)NC(c2ccccc2)c2ccccc2)cc1` [MMV1579776], the activity at 25 µM was determined as 95.1% under setting [10]; 101% (read-out: Percentage survival at 25um, 25 uM B); 86.7% (read-out: Percentage survival at 25um, 25 uM C); 94.2% (read-out: Percentage survival at 25um, 25 uM mean). In addition, the activity at 100 µM came out at 97% under setting [13], 103% under setting [14], 98.7% under setting [15] and 89% under setting [16].

On to `c1cc(CN2CCCNCCNCCCNCC2)ccc1CN1CCCNCCNCCCNCC1` [MMV1580502], for which the activity at 25 µM by setting is: under setting [27], 91.1%; under setting [28], 89%; under setting [29], 97.4%; under setting [30], 86.9%. For the same compound, the activity at 100 µM under setting [31] is 83.6%, the activity at 100 µM under setting [32] was found to be 86.9%, the activity at 100 µM under setting [33] is 83.7% and the activity at 100 µM under setting [34] was 80.2%.

Turning to `COc1cc(Cc2cnc(N)nc2N)cc(OC)c1OC` [MMV000028], the activity at 25 µM was found to be 83.8% under setting [9], 93.1% under setting [10], 86.4% under setting [11] and 71.8% under setting [12]. The activity at 100 µM runs as follows: under setting [13], 77.4%; under setting [14], 78.2%; under setting [15], 74.4%; under setting [16], 79.6%.

Take `CC(C)(C)c1ccc(Oc2ccc(N)cc2)cc1` [MMV1174026]: the activity at 25 µM came out at 74% under setting [17], 108% under setting [2], 51.8% under setting [3] and 62.2% under setting [4]. Moreover, the activity at 100 µM is -4.12% (first replicate column, read-out: Percentage survival at 100um, 100 uM A); 2.41% under setting [18]; 6.23% (second replicate column, read-out: Percentage survival at 100um, 100 uM A); 5.13% (third replicate column, read-out: Percentage survival at 100um, 100 uM A).

On to `Fc1ccc2c(/C=C/c3cccnc3)c[nH]c2c1` [MMV1578889], for which the activity at 25 µM was 76.9% under setting [1], 86.3% under setting [2], 56.6% under setting [3] and 87.7% under setting [4]. The activity at 100 µM runs as follows: under setting [5], 58.2%; under setting [6], 83.4%; under setting [7], 19.8%; under setting [8], 71.5%.
